Data set [1] concerns Staphylococcus aureus. Kind of data set: Bacterial lysis (broth dilution) assay, MBC. It counts as cell-based. The source says: (§1) The assays for growth inhibition of a microbial target can be used to derive a minimum bactericidal concentration (MBC) value for the peptide, i.e., the concentration of peptide required to kill 99.9% of the microbial sample being tested. This value is well known to those in the art as representative of the effectiveness of a particular antimicrobial agent (e.g., an antibiotic) against a particular organism or group of organisms. In assays to detect the MBC of a peptide, growth inhibition of a bacterial population also can be measured with reference to the number of colony forming units (cfu) after exposure to a peptide relative to a control experiment without a peptide.
(§2) Bacterial lysis assay. Bacterial lysis assays were conducted in a manner similar to that described previously (Lehrer, R. I., M. E. Selsted, D. Szklarek, and F. J. 1983. Infect. Immun. 42: 10-4, 1983; Miller, M. A., R. F. Garry, J. M. Jaynes, and R. C. Montelaro, AIDS Res Hum Retroviruses 7: 511-519, 1991). Bacterial suspensions were cultured in Luria-Bertani Broth to mid-log growth phase and washed by two cycles of centrifugation and suspension in 10 mM phosphate buffer. The Abs600 of the suspension was adjusted with 10 mM phosphate buffer such that, upon dilution, 5-10×10^5 cfu/mL would be treated in the assay. Bacteria were incubated for 1 h with two-fold dilutions of peptides (100 μM to 100 nM) in 96-well plates using 10 mM phosphate buffer, pH 7.2, as a diluent. Ten-fold dilutions of bacteria were performed to 1:1000; a 100 μl aliquot from each condition was spread on the surface of tryptic soy agar plates (Difco, Detroit, Mich.) which were incubated overnight. Colonies of surviving bacteria (cfu, colony-forming units) were counted and compared to untreated controls to determine the amount of peptide-induced killing under each condition. Log killing is defined as the log of the ratio of cfu present before and after treatment with peptide. The minimal bactericidal concentration, MBC, is the peptide concentration at which 99.9% (three log) killing is achieved (Pearson et al., Antimicrob. Agents Chemother. 18: 699-708, 1980).
(§3) A limitation of many host-derived antimicrobial peptides is their decreased activity at physiologic (150 mM) NaCl concentration. See Friedrich et al., Antimicrobial Agents and Chemotherapy 43:1542-1548. The peptides WLSA-5 (SEQ ID NO:3) and LL37 were tested against the two index strains at physiologic NaCl. […] The activity of eLLPs and LBUs of this invention were compared to an expanded list of clinical bacterial isolates. These are summarized in Table 2 by comparing their MBCs in phosphate buffer alone (low salt) and phosphate buffer containing 150 mM NaCl (physiologic conditions). Inspection of this table would lead one skilled in the art to conclude that the activity of eLLPs and LBUs compare favorably to the host derived antimicrobial peptides as it relates to the spectrum and potency of antimicrobial activity.

For data set [2], the system named is Pseudomonas aeruginosa. The class given is cell-based.
Excerpt: as §1, §2, §3

Data set [3] concerns Methicillin Resistant S. aureus. The class given is cell-based, Staphylococcus aureus. As to conditions: 0 mM NaCl (phosphate buffer, low salt).
Excerpt: as §1
Bacterial lysis assay. Bacterial lysis assays were conducted in a manner similar to that described previously (Lehrer, R. I., M. E. Selsted, D. Szklarek, and F. J. 1983. Infect. Immun. 42: 10-4, 1983; Miller, M. A., R. F. Garry, J. M. Jaynes, and R. C. Montelaro, AIDS Res Hum Retroviruses 7: 511-519, 1991). Bacterial suspensions were cultured in Luria-Bertani Broth to mid-log growth phase and washed by two cycles of centrifugation and suspension in 10 mM phosphate buffer. […] Colonies of surviving bacteria (cfu, colony-forming units) were counted and compared to untreated controls to determine the amount of peptide-induced killing under each condition. […]

Data set [4] deals with differentiated primary human airway epithelial cells. Kind of data set: Cystic fibrosis cell culture model: transepithelial resistance. The class given is cell-based. As to conditions: compared with LL-37. On the procedure: Preparation of eukaryotic cells. Differentiated primary cell cultures of human bronchial epithelial (HBE) cells (CF and non-CF) on an air-liquid interface were prepared in antibiotic free media. See Zabner, J. et al., 1996, J Virol. 70:6994-7003. These filters were incubated with P. aeruginosa followed by washing to remove non-adherent bacteria. Individual filters were next exposed to peptide at increasing concentrations. In order to release viable bacteria, trypsin/EDTA was added and these preparations were plated on standard bacteriologic media to quantify bacterial survival. Similarly prepared cells were monitored for peptide toxicity by measuring transepithelial resistance. The advantage of this model is that it can measure the selective toxicity of peptide for bacterium versus host cells under identical conditions.
Based on above in vitro findings, WLSA-5 (SEQ ID NO:3) was tested in a scenario that more accurately assessed its selective toxicity. For this assay, a cell culture model of bacterial adherence was established that utilized differentiated primary human airway epithelial cells. […] The ability of peptide to kill bacteria is monitored as a function of viable bacteria associated with the epithelial cells after peptide exposure. […]

[5] abbreviates: 0 mM NaCl (phosphate buffer, low salt).

In brackets after ≈: the same amount, converted by molar mass. Where two headings read alike, the source gives them in different places. Residues, ends and D or L forms follow the SMILES beside them. No end group written: not given here.

In the case of `CC(C)[C@H](NC(=O)[C@H](CCCNC(=N)N)NC(=O)[C@H](CCCNC(=N)N)NC(=O)[C@@H](NC(=O)[C@@H](NC(=O)[C@H](CCCNC(=N)N)NC(=O)[C@@H](N)CCCNC(=N)N)C(C)C)C(C)C)C(=O)N[C@@H](CCCNC(=N)N)C(=O)N[C@@H](CCCNC(=N)N)C(=O)N[C@H](C(=O)N[C@H](C(=O)N[C@@H](CCCNC(=N)N)C(=O)N[C@@H](CCCNC(=N)N)C(=O)N[C@H](C(=O)N[C@H](C(=O)N[C@@H](CCCNC(=N)N)C(=O)N[C@H](C(=O)N[C@H](C(=O)N[C@@H](CCCNC(=N)N)C(=O)N[C@@H](CCCNC(=N)N)C(=O)N[C@H](C(=O)N[C@H](C(=O)N[C@@H](CCCNC(=N)N)C(=O)N[C@@H](CCCNC(=N)N)C(=O)O)C(C)C)C(C)C)C(C)C)C(C)C)C(C)C)C(C)C)C(C)C)C(C)C` [LBU-2] (H-RRVVRRVRRVVRRVVRVVRRVVRR-OH), the minimal bactericidal concentration (MBC) in data set [1] (setting [5]) was found to be 1500 nM.
On to `CC(C)[C@H](N)C(=O)N[C@@H](CCCNC(=N)N)C(=O)N[C@@H](CCCNC(=N)N)C(=O)N[C@H](C(=O)N[C@H](C(=O)N[C@@H](CCCNC(=N)N)C(=O)N[C@@H](CCCNC(=N)N)C(=O)N[C@H](C(=O)N[C@H](C(=O)N[C@@H](CCCNC(=N)N)C(=O)N[C@H](C(=O)N[C@H](C(=O)N[C@@H](CCCNC(=N)N)C(=O)N[C@@H](CCCNC(=N)N)C(=O)N[C@H](C(=O)N[C@H](C(=O)N[C@@H](CCCNC(=N)N)C(=O)N[C@@H](CCCNC(=N)N)C(=O)N[C@H](C(=O)N[C@@H](CCCNC(=N)N)C(=O)N[C@@H](CCCNC(=N)N)C(=O)N[C@H](C(=O)N[C@H](C(=O)N[C@@H](CCCNC(=N)N)C(=O)N[C@@H](CCCNC(=N)N)C(=O)N[C@H](C(=O)N[C@H](C(=O)N[C@@H](CCCNC(=N)N)C(=O)N[C@H](C(=O)N[C@H](C(=O)N[C@@H](CCCNC(=N)N)C(=O)N[C@@H](CCCNC(=N)N)C(=O)N[C@H](C(=O)N[C@H](C(=O)N[C@@H](CCCNC(=N)N)C(=O)N[C@@H](CCCNC(=N)N)C(=O)O)C(C)C)C(C)C)C(C)C)C(C)C)C(C)C)C(C)C)C(C)C)C(C)C)C(C)C)C(C)C)C(C)C)C(C)C)C(C)C)C(C)C)C(C)C)C(C)C)C(C)C` [LBU-3] (H-VRRVVRRVVRVVRRVVRRVRRVVRRVVRVVRRVVRR-OH; N-terminus and C-terminus assumed), for which the MBC in data set [1] (setting [5]) was 1500 nM; in data set [1] (150 mM NaCl (physiologic)), 1500 nM (≈ 6.92 µg/mL).
As to `CC[C@H](C)[C@H](NC(=O)[C@H](C)NC(=O)[C@H](CCCNC(=N)N)NC(=O)[C@H](CS)NC(=O)[C@H](C)NC(=O)[C@H](CCCNC(=N)N)NC(=O)[C@H](CCC(N)=O)NC(=O)[C@@H](NC(=O)[C@@H](NC(=O)[C@H](CCCNC(=N)N)NC(=O)[C@@H](NC(=O)[C@@H](NC(=O)[C@@H](N)CCCNC(=N)N)C(C)C)[C@@H](C)CC)C(C)C)C(C)C)C(=O)N[C@@H](CCCNC(=N)N)C(=O)N[C@@H](Cc1c[nH]cn1)C(=O)N[C@H](C(=O)N[C@H](C(=O)N[C@@H](CCCNC(=N)N)C(=O)N[C@@H](CCCNC(=N)N)C(=O)N[C@H](C(=O)N[C@@H](CCCNC(=N)N)C(=O)N[C@@H](CCC(N)=O)C(=O)NCC(=O)N[C@@H](CC(C)C)C(=O)N[C@@H](CCCNC(=N)N)C(=O)N[C@@H](CCCNC(=N)N)C(=O)N[C@H](C(=O)N[C@@H](CC(C)C)C(=O)O)[C@@H](C)CC)[C@@H](C)CC)C(C)C)[C@@H](C)CC` [SA-5] (H-RVIRVVQRACRAIRHIVRRIRQGLRRIL-OH; N-terminus and C-terminus assumed), the MBC came to 1 µM in data set [2] (setting [5]), 1 µM (≈ 3.46 µg/mL) in data set [2] (150 mM NaCl (physiologic)) and 1000 nM in data set [1] (setting [5]).
With `CC(C)[C@H](NC(=O)[C@H](Cc1c[nH]c2ccccc12)NC(=O)[C@H](CCCNC(=N)N)NC(=O)[C@H](CCCNC(=N)N)NC(=O)[C@@H](NC(=O)[C@@H](NC(=O)[C@H](CCCNC(=N)N)NC(=O)[C@@H](NC(=O)[C@@H](NC(=O)[C@@H](N)CCCNC(=N)N)C(C)C)C(C)C)C(C)C)C(C)C)C(=O)N[C@@H](CCCNC(=N)N)C(=O)N[C@@H](CCCNC(=N)N)C(=O)O` [WLBU-1] (H-RVVRVVRRWVRR-OH; N-terminus and C-terminus assumed), the MBC in data set [1] (setting [5]) is reported as 30,000 nanomolar; in data set [1] (150 mM NaCl (physiologic)), 10,000 nanomolar.
Take `CC[C@H](C)[C@H](NC(=O)[C@H](C)NC(=O)[C@H](CCCNC(=N)N)NC(=O)[C@H](CS)NC(=O)[C@H](Cc1c[nH]c2ccccc12)NC(=O)[C@H](CCCNC(=N)N)NC(=O)[C@H](CCC(N)=O)NC(=O)[C@@H](NC(=O)[C@@H](NC(=O)[C@H](CCCNC(=N)N)NC(=O)[C@@H](NC(=O)[C@H](Cc1c[nH]c2ccccc12)NC(=O)[C@@H](N)CCCNC(=N)N)[C@@H](C)CC)C(C)C)C(C)C)C(=O)N[C@@H](CCCNC(=N)N)C(=O)N[C@@H](Cc1c[nH]cn1)C(=O)N[C@H](C(=O)N[C@@H](Cc1c[nH]c2ccccc12)C(=O)N[C@@H](CCCNC(=N)N)C(=O)N[C@@H](CCCNC(=N)N)C(=O)N[C@H](C(=O)N[C@@H](CCCNC(=N)N)C(=O)N[C@@H](CCC(N)=O)C(=O)NCC(=O)N[C@@H](CC(C)C)C(=O)N[C@@H](CCCNC(=N)N)C(=O)N[C@@H](CCCNC(=N)N)C(=O)N[C@@H](Cc1c[nH]c2ccccc12)C(=O)N[C@@H](CC(C)C)C(=O)N[C@@H](CCCNC(=N)N)C(=O)N[C@H](C(=O)N[C@H](C(=O)O)C(C)C)C(C)C)[C@@H](C)CC)[C@@H](C)CC` [WLSA-5] (H-RWIRVVQRWCRAIRHIWRRIRQGLRRWLRVV-OH): the MBC in data set [2] (setting [5]) came out at 1 µM; in data set [2] (150 mM NaCl (physiologic)), 1 µM (≈ 4.18 µg/mL); in data set [3], 0.15 µM; in data set [1] (setting [5]), 1000 nM; in data set [1] (150 mM NaCl (physiologic)) it was 1000 nM (≈ 4.18 µg/mL). The “effect on transepithelial resistance” value in data set [4] is “transient and not significantly different from LL-37”.
Turning to “LL37: human cathelicidin, processed form a 37-amino acid amphiphilic α-helical cationic host derived antimicrobial peptide (LLGDFFRKSKEKIGKEFKRIVQRIKDFLRNLVPRTES; Antibacterial peptide LL-37; UniProt P49913 134-170, looked up) [reference compound]”, the “P. aeruginosa killing, influence of NaCl” value in data set [2] (low salt vs physiologic (150 mM) NaCl) is “not affected by NaCl inclusion”.
The compound “RRVVRRVRRVVRRVVRVVRRVVRRVRRVVRRVVRVVRRVVRR [LBU-3.5]” yielded an MBC in data set [2] (150 mM NaCl (physiologic)) of 0.4 µM.
As for “RVVRVVRRVVRRVRRVVRRVVRVVRRVVRRVRRVVRRVVRVVRRVVRR [LBU-4]”, the MBC in data set [1] (setting [5]) and in data set [1] (150 mM NaCl (physiologic)) was 800 nM each time.
